≈ marks a conversion by molar mass, not a printed value. Calls of active or inactive are those of the source. No cut-off for these calls is given here.
How the values were obtained:
[1] = Acute toxicity in female BALB/c mouse assessed as effect on CREA level in serum at 800 mg/kg, po measured after 14 days; format: organism-based; settings: in vivo, 336 h, time 14 day
[2] = tested on: Cell membrane; test: Induction of cell membrane permeability in methicillin-resistant Staphylococcus aureus ATCC33591 assessed as fold increase in fluorescence intensity at 1 times MIC measured after 30 mins by Annexin V-FITC staining based analysis; format: cell membranes
[3] = Acute toxicity in female BALB/c mouse assessed as effect on ALB level in serum at 800 mg/kg, po measured after 14 days; format: organism-based; settings: in vivo, 336 h, time 14 day
[4] = tested on: Enterococcus faecium; test: Antimicrobial activity against Enterococcus faecium ATCC19434 measured after 24 hrs by CLSI protocol based microdilution method; format: functional
[5] = Acute toxicity in female BALB/c mouse assessed as effect on spleen at 800 mg/kg, po measured after 14 days by H and E staining based analysis; format: organism-based; settings: in vivo, 336 h, time 14 day
[6] = tested on: Cell membrane; test: Induction of cell membrane permeability in methicillin-resistant Staphylococcus aureus ATCC33591 assessed as increase in fluorescence measured after 30 mins by Annexin V-FITC staining based analysis; format: cell membranes
[7] = tested on: Staphylococcus aureus; test: Antimicrobial activity against […] Staphylococcus aureus USA300 measured after 24 hrs by CLSI protocol based microdilution method; format: functional
[8] = tested on: Cell membrane; test: Induction of cell membrane permeability in methicillin-resistant Staphylococcus aureus ATCC33591 assessed as increase in fluorescence measured after 30 mins by 7-AAD staining based analysis; format: cell membranes
[9] = Metabolic stability in mouse liver microsomes assessed as half life at 1 uM measured upto 120 mins in presence of NADPH by LC-MS analysis; format: ADME, Microsome
[10] = AUC (0 to t) in female Sprague-Dawley rat at 20 mg/kg, po measured upto 24 hrs by LC-MS analysis; format: ADME, organism-based; settings: in vivo
[11] = tested on: Enterococcus faecalis; test: Antimicrobial activity against Enterococcus faecalis ATCC29212 measured after 24 hrs by CLSI protocol based microdilution method; format: functional
[12] = tested on: Cell membrane; test: Induction of cell membrane permeability in methicillin-resistant Staphylococcus aureus ATCC33591 assessed as fold increase in fluorescence intensity at 0.5 times MIC measured after 30 mins by 7-AAD staining based analysis; format: cell membranes
[13] = tested on: Cell membrane; test: Induction of cell membrane damage in methicillin-resistant Staphylococcus aureus ATCC33591 assessed as appearance of inward wrinkling in cell surface at 1 times MIC measured after 30 mins by TEM analysis; format: cell membranes
[14] = Hemolytic activity in sheep erythrocytes assessed as hemolysis at 256 ug/ml incubated for 1 hr by microplate reader based analysis relative to control; format: toxicity, cell-based, Ovis aries, Erythrocyte; settings: at 256 µg/mL, read-out: Activity
[15] = Metabolic stability in human liver microsomes assessed as intrinsic clearance at 1 uM measured upto 120 mins in presence of NADPH by LC-MS analysis; format: ADME, Microsome; settings: read-out: CLH
[16] = Drug concentration in BALB/c mouse plasma at 800 mg/kg, po measured after 1 hr by LC-MS analysis; format: ADME, organism-based
[17] = Cmax in female Sprague-Dawley rat at 20 mg/kg, po measured upto 24 hrs by LC-MS analysis; format: ADME, organism-based; settings: in vivo
[18] = Acute toxicity in female BALB/c mouse assessed as effect on AST level in serum at 800 mg/kg, po measured after 14 days; format: organism-based; settings: in vivo, 336 h, time 14 day
[19] = tested on: Cell membrane; test: Induction of cell membrane permeability in methicillin-resistant Staphylococcus aureus ATCC33591 assessed as fold increase in fluorescence intensity at 0.25 times MIC measured after 30 mins by Annexin V-FITC staining based analysis; format: cell membranes
[20] = tested on: Staphylococcus aureus; test: Antimicrobial activity against Staphylococcus aureus RN4220 harbouring pCM-sfgfp measured after 24 hrs by CLSI protocol based microdilution method; format: functional
[21] = Hemolytic activity in sheep erythrocytes assessed as hemolysis at 64 ug/ml incubated for 1 hr by microplate reader based analysis relative to control; format: toxicity, cell-based, Ovis aries, Erythrocyte; settings: at 64 µg/mL, read-out: Activity
[22] = tested on: Acinetobacter baumannii; test: Antimicrobial activity against Acinetobacter baumannii ATCC19606 measured after 24 hrs by CLSI protocol based microdilution method; format: functional
[23] = tested on: Staphylococcus aureus; test: Antimicrobial activity against […] Staphylococcus aureus ATCC33591 measured after 24 hrs by CLSI protocol based microdilution method; format: functional
[24] = Inhibition of N-terminal his 6 tagged Acinetobacter baumannii Fabi (1 to 804 residues) expressed in Escherichia coli BL21 incubated for 30 mins in presence of NADH by fluorescence based microplate reader analysis
[25] = Cytotoxicity against HEK293 cells assessed as survival rate at 400 uM measured after 48 hrs by CCK-8 method relative to control; format: toxicity, cell-based; settings: human, read-out: Survival
[26] = tested on: Escherichia coli; test: Antimicrobial activity against Escherichia coli ATCC25922 measured after 24 hrs by CLSI protocol based microdilution method; format: functional
[27] = tested on: HepG2; test: Cytotoxicity against human HepG2 cells assessed as survival rate at 800 uM measured after 48 hrs by CCK-8 method relative to control; format: functional; settings: read-out: Survival
[28] = tested on: Cell membrane; test: Induction of cell membrane damage in methicillin-resistant Staphylococcus aureus ATCC33591 assessed as increase in red fluorescence at 1 times MIC measured after 30 mins by […] analysis; format: cell membranes
[29] = target: T1, Enoyl-[acyl-carrier-protein] reductase [NADPH] FabI (Staphylococcus aureus) (UniProt Q6GI75); test: Inhibition of N-terminal his 6 tagged Staphylococcus aureus Fabi (1 to […] residues) expressed in Escherichia coli BL21 at 1 uM incubated for 30 mins in presence of NADPH by fluorescence based microplate reader analysis relative to control
T1 sequence (whole entry): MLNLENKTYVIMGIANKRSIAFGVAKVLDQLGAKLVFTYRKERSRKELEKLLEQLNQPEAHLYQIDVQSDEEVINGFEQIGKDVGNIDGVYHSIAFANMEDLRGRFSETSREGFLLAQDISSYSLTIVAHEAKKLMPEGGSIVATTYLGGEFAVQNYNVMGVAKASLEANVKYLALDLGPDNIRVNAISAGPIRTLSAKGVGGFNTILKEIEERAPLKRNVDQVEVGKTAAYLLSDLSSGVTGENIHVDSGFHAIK

[30] = Metabolic stability in mouse liver microsomes assessed as intrinsic clearance at 1 uM measured upto 120 mins in presence of NADPH by LC-MS analysis; format: ADME, Microsome; settings: read-out: CLH
[31] = tested on: Staphylococcus aureus; test: Bactericidal activity against […] Staphylococcus aureus ATCC33591 assessed as reduction in bacterial count at 8 times MIC measured within 8 to 12 hrs by time-kill assay; format: functional, organism-based; settings: time 8-12 hrs
[32] = Acute toxicity in female BALB/c mouse assessed as effect on TP level in serum at 800 mg/kg, po measured after 14 days; format: organism-based; settings: in vivo, 336 h, time 14 day
[33] = target: T1, Enoyl-[acyl-carrier-protein] reductase [NADPH] FabI (Staphylococcus aureus); test: Inhibition of N-terminal his 6 tagged Staphylococcus aureus Fabi (1 to […] residues) expressed in Escherichia coli BL21 at 10 uM incubated for 30 mins in presence of NADPH by fluorescence based microplate reader analysis relative to control
[34] = Cmax in female Sprague-Dawley rat at 5 mg/kg, iv measured upto 24 hrs by LC-MS analysis; format: ADME, organism-based; settings: in vivo

Row | Compound | Activity [1] | fold change (FC) [2] | Activity [3] | MIC [4] [µg/mL] | Activity [5] | Activity [6] | MIC [7] [µg/mL] | Activity [8] | half-life at 1 µM [9] [min] | AUCt [10] [µg·h/mL] | MIC [11] [µg/mL] | fold change (FC) [12] | Activity [13] | hemolysis at 1 h, 256 ug/ml [14] [%] | CLint scaled at 1 µM [15] [mL/min/kg] | concentration at 1 h [16] [ng/mL] | Cmax [17] [µg/mL] | Activity [18] | fold change (FC) [19] | MIC [20] [µg/mL] | also measured
1 | Cc1c(Br)cccc1N1CC(c2nc3ccccc3n2C)CC1=O (stereo not drawn) | Non-Toxic | 2.6 | Non-Toxic | > 32 | Non-Toxic | Active | 1 (≈ 2.6 µM) | Active | 27.7 | 11.1491 | > 32 | 1.6 | Active | 9.9 | 27.3 | 53600 | 1.52 | Non-Toxic | 1.3 | 2 (≈ 5.2 µM) | hemolysis at 1 h, 64 ug/ml [21]: 3.1%; MIC [22]: > 32 µg/mL; MIC [23]: 1 µg/mL (≈ 2.6 µM); IC50 [24]: 266 nM; viability at 48 h, 400 µM [25]: > 70%; MIC [26]: > 32 µg/mL; viability at 800 µM [27]: > 75%; Activity [28]: Active; inhibition [29]: 88.9%; CLint scaled at 1 µM [30]: 197 mL/min/kg; Activity [31]: Below limit of detection; Activity [32]: Non-Toxic; inhibition [33]: 98.7%; Cmax [34]: 3.25 µg/mL
2 | COc1c(Br)cccc1N1CC(c2nc3ccccc3n2C)CC1=O (stereo not drawn) | Non-Toxic | 2.4 | Non-Toxic | > 32 | Non-Toxic | Active | 1 (≈ 2.5 µM) | Active | 13.2 | 3.127 | > 32 | 1.5 | Active | 8.1 | 45.4 | 32700 | 1.27 | Non-Toxic | 1.4 | 2 (≈ 5 µM) | hemolysis at 1 h, 64 ug/ml [21]: 1.9%; MIC [22]: > 32 µg/mL; MIC [23]: 1 µg/mL (≈ 2.5 µM); IC50 [24]: 266 nM; viability at 48 h, 400 µM [25]: > 70%; MIC [26]: > 32 µg/mL; viability at 800 µM [27]: > 65%; Activity [28]: Active; inhibition [29]: 89.6%; CLint scaled at 1 µM [30]: 414 mL/min/kg; Activity [31]: Below limit of detection; Activity [32]: Non-Toxic; inhibition [33]: 99.3%; Cmax [34]: 2.72 µg/mL

From ChEMBL document CHEMBL5500393, “Discovery and Optimization of Novel SaFabI Inhibitors as Specific Therapeutic Agents for MRSA Infection” (J Med Chem, 2024)
